One may read the Kd as a measure of binding affinity in units of concentration.

The source made the active and inactive calls. How the calls were made is not given here.

The values that follow come from PubChem BioAssay AID1033 (Sanford-Burnham Center for Chemical Genomics, 2008).

For this assay, the target named is Chaperone protein DnaK (Escherichia coli (strain K12)) (UniProt P0A6Y8). Nature of the assay: E. coli DnaK SBD ligand binding – biophysical, NMR, chaperone (AID 1033). Conditions: Purified DnaK SBD.
Sequence of Chaperone protein DnaK (Escherichia coli (strain K12)) (P0A6Y8 whole entry, looked up): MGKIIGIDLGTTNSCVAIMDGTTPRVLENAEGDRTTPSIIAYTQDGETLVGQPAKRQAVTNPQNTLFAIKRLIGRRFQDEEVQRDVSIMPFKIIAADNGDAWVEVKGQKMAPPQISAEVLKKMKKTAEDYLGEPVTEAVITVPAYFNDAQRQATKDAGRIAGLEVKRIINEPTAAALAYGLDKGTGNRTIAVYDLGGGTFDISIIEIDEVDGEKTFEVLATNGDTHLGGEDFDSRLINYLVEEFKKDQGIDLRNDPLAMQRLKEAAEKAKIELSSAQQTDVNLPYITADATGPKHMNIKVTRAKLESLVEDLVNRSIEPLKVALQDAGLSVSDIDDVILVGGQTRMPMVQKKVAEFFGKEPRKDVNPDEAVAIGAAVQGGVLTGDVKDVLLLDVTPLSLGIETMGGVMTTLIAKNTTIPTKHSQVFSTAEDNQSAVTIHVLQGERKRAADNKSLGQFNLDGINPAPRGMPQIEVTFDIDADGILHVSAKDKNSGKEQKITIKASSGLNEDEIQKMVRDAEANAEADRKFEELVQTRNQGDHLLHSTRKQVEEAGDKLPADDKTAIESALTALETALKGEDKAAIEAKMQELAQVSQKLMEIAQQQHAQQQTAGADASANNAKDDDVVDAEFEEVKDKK
Regarding `CN(C(N)=O)C1(C)CCS(=O)(=O)C1` (configuration not stated), the Kd was > 4 mM (inactive). As for `N#CCc1nc2ccccc2s1`, the figure is > 4 mM (inactive); as for `CCCCCC(=O)Cc1cc(O)cc(O)c1C(=O)Oc1cc(CC(=O)CCCCC)c(C(=O)O)c(OC)c1`, > 4 mM (inactive); as for `COc1cc2c(cc1O)CC1c3c(cc(O)c(OC)c3-2)CCN1C` (configuration not stated), > 4 mM (inactive). For `CS(=O)(=O)N1CCC(C(=O)NC2CCCC2)CC1`, the Kd is > 4 mM (inactive). As for `CC(=O)NC12CC3CC(C)(C1)CC(NC(C)=O)(C3)C2`, the figure is > 4 mM (inactive); as for `COc1cc2c(cc1OC)[C@@H]1C(=O)c3ccc4oc(C(C)C)cc4c3O[C@@H]1CO2`, > 4 mM (inactive); as for `Cn1c(=O)c2[nH]cnc2n(C)c1=O`, > 4 mM (inactive). As for `COc1ccc(C(N)=O)cc1NC(C)=O`, the figure is > 4 mM (inactive); as for `CC(C)(O)P(C)(=O)c1ccccc1` (configuration not stated), > 4 mM (inactive). With `COC(=O)c1cccs1` the figure was > 4 mM (inactive); with `CC12CNCC(C)(CNC1)C2O` (configuration not stated), > 4 mM (inactive). As to `COc1c(O)cc2c(-c3ccccc3)cc(=O)oc2c1OC`, the Kd is > 4 mM (inactive). Take `O=C(Nc1ccon1)c1csc2c1CCCC2`: the Kd was > 4 mM (inactive). With `Cn1nnc2cc(CN)ccc21` the figure was > 4 mM (inactive); with `CC1(C)CC[C@]2(C)CC[C@]3(C)C(=CCC4[C@@]5(C)CC[C@H](O)C(C)(C)C5CC[C@]43C)C2C1` (some centres not stated), > 4 mM (inactive); with `CC(=O)NN1C(=O)c2cccc3cccc(c23)C1=O`, > 4 mM (inactive).

For `O=C(CN1CCOCC1)Nc1cccc(Br)c1`, the Kd was > 4 mM (inactive). With `O=C(NC1CCS(=O)(=O)C1)C1CCCCC1` (configuration not stated) the figure was > 4 mM (inactive).

`COc1cc(C(C)=O)ccc1OC(=O)N1CCOCC1`: the Kd was > 4 mM (inactive). With `Cc1cccc(-n2c(N)cc(=O)[nH]c2=S)c1` the figure was > 4 mM (inactive). For the compound `O=C(Nc1cccnc1)c1c(F)cccc1F`, the Kd was > 4 mM (inactive). As for `OC(CCl)c1ccc(-n2cncn2)cc1` (configuration not stated), the Kd is > 4 mM (inactive). With `Cc1cc(=O)n2nc(-c3ccccc3)sc2n1` the figure was > 4 mM (inactive); with `O=C(c1cc2ccccc2o1)N1CCCCCC1`, > 4 mM (inactive). As for `CCN(CC)c1nc2n(c(=O)n1)CCO2`, the Kd is > 4 mM (inactive). As for `CC(C)C1COc2cc3oc(=O)ccc3cc2O1` (configuration not stated), the figure is > 4 mM (inactive). As for `OCc1ccncc1`, the figure is > 4 mM (inactive).

As to `NC(=O)c1ccc2c(c1)OCO2`, the Kd was > 4 mM (inactive).

Regarding `O=C(Nc1ncccn1)c1cccc(F)c1`, the Kd is > 4 mM (inactive). As for `CCC[C@@H]1CCCCN1`, the figure is > 4 mM (inactive); as for `NC(CCC(=O)Nc1ccc([N+](=O)[O-])cc1)C(=O)O` (configuration not stated), > 4 mM (inactive).

Take `O=c1ccc(=O)n(CN2CCc3ccccc3C2)[nH]1`: the Kd is > 4 mM (inactive). As for `CC(=O)Nc1ccc(NC(=O)c2ccnn2C)cc1`, the figure is > 4 mM (inactive); as for `CC(=O)NCCc1cc2ccc(C)c(C)c2[nH]c1=O`, > 4 mM (inactive). With `COc1ccccc1NC(=O)NC(N)=O` the figure was > 4 mM (inactive); with `NC(=O)c1ccc(NC(=O)c2ccco2)cc1`, > 4 mM (inactive). As for `O=C1C2CC=CCC2C(=O)N1c1cccc(O)c1` (configuration not stated), the figure is > 4 mM (inactive); as for `O=c1cc(-c2ccc(O)cc2)[nH]c(=S)[nH]1`, > 4 mM (inactive).

With `CC(=O)Nc1ccc(C(=O)N2CCOCC2)cc1Cl`, the Kd was > 4 mM (inactive). With `CSc1cccc(NC(=O)c2c(Cl)cnn2C)c1` the figure was > 4 mM (inactive); with `CC(=O)OC1CCC2(C)C(=CC=C3C2CCC2(C)C3CCC2C(C)/C=C/C(C)C(C)C)C1(C)C` (configuration not stated), > 4 mM (inactive).
